# In patent publication US20080108665A1, “Use of N-substituted sulfoximines for control of invertebrate pests” (priority 2006, published 2008):
# Key:
# Assay type in all cases: in vivo
# [1] = tested on: Green Peach Aphid (Myzus persicae); assay: Green peach aphid root uptake assay on pepper; conditions: 3 days after infestation
# Method: These assays were designed to evaluate the possibility of using the compounds identified in the foregoing examples for applications such as nursing trays, transplanting water and/or irrigation. Systemic activity against green peach aphid was evaluated in a root uptake assay. Bell peppers (Capsicum annum var. California Wonder) were used as test plants seeded and grown in rock wool plugs. Plants were grown to expanding 1st true leaf stage. The rock wool plugs containing individual plants were placed in 1-ounce cups and surrounded with white clean sand. Five plants were used for each treatment. A volume of 5 mL of the test solutions was applied to each cup (each plant). After insecticide application, the seedlings were infested with green peach aphids and held in a growth chamber (25° C., 50% RH, 16 hr light: 8 hr dark). Number of live aphids on each plant was counted at 3 days after infestation. Calculations for % Control were based on a corrected basis compared to the populations on the reference plants.
# Corrected % Control=100*(X−Y)/X • where X=No. of live aphids on reference plants • Y=No. of live aphids on treated plants Assay 1: Compound (3) was tested at a dose range of 5-500 μg/plant. A stock solution of 1000 ppm (1 mg/mL) was made by dissolving technical test compound in acetone:ethanol (90:10). The highest test concentration (100 ppm, 500 μg/5 ml) was prepared by diluting 2.5 mL stock solution with 22.5 mL DI water. The lower test concentrations (25 mL) were similarly prepared by diluting aliquots of the stock solution with DI water. Reference plants received DI water only.
# Assay 2: Compound (2) was tested at a dose range of 0.08-50 μg/plant. A stock solution of 1000 ppm was made by dissolving 2 mg of technical test compound in 2 mL acetone. The highest test concentration (10 ppm, 50 μg/5 ml) was prepared by diluting 0.32 mL stock solution with 1.6 mL acetone and 30.08 mL DI water, containing 6% acetone. Lower test concentrations were prepared by sequentially diluting 6.5 mL higher concentration (start from the 10 ppm test solution) with 26.0 ml acetone: DI water (6:94). The solvent/diluent system (6% acetone) was used as reference.
# [2] = tested on: Brown Planthopper (Nilaparvata lugens); assay: Brown planthopper root uptake assay on rice; conditions: 6-day observation
# Method: (§1) These assays were designed to evaluate the possibility of using compounds of the invention for applications such as nursing trays, transplanting water and/or irrigation. Root-uptake systemic assays were performed on both brown planthopper and green leafhopper. Four-week-old rice seedlings were submerged in 3-cm depth of water in the bottom portion (high 5 cm, diameter 3 cm) of a 2-part glass cylinder (high 18 cm, diameter 3 cm). A metal screen was used to hold the seedlings within the bottom portion. Scotch tape was used to bind the two portions of the cylinder after setting up the seedlings. A metal cap was used to cover the cylinder. There were 4 cylinders for each treatment. The test compound was dissolved in acetone to make a 10,000 ppm stock solution which was incorporated at final test concentrations of 5, 2, 1, 0.5, 0.25 ppm in the water in which rice seedlings were submerged. Five laboratory-reared 3rd instar nymphs of brown planthopper or green leafhopper were introduced into each cylinder 3 hr after insecticide application. The treated test units were kept in a growth chamber with conditions set as followings: Temperature 28±0.5° C.; Relative humidity 70±0.5%; Photoperiod 14 hr light: […].
# [3] = tested on: Green Leafhopper (Nephotettix sp.); assay: Green leafhopper root uptake assay on rice; conditions: 6-day observation
# Method: as §1
# [4] = tested on: Cotton Aphid (Aphis gossypii); assay: Cotton aphid seed coating assay on squash; conditions: for % Control, seed coating systemic: 1st leaf infested 13 days after planting
# Method: Selected compounds of the invention were tested in assays designed to evaluate its systemic activity for control of cotton aphid through seed-coating prior to planting. The crop used in these assays was a hybrid squash (var. Pic-N-Pic). Test compound was formulated in a 10% SC formulation. Ten squash seeds were used for each treatment. Seeds were placed on waxed paper and a pipette was used to apply the original or diluted formulations to each seed. The air-dried, treated seeds were individually planted into 3 inch pots containing metro mix. The pots were placed on a California cart and moved into the greenhouse for sub watering only. At the specified number of days after planting, the plants were infested with approximately 40 wingless aphids. The infested plants were kept in an environmental holding room (23° C., 40% RH, 16 hr light: 8 hr dark) for three days before the number of live aphids was counted under a microscope. Calculations for % Control were based on a corrected basis compared to the populations on the reference plants germinated from seeds treated with the formulation blank.
# Corrected % Control=100*(X−Y)/X • where X=No. of live aphids on reference plants • Y=No. of live aphids on treated plants Assay 1. Compounds (1) and (2) were tested at 3 mg/seed. The original 10% SC formulation was used. One half (15 ul) of the sample was spread onto one side of a seed. Once dried (approximately 1 hr), the seed was flipped over and the 2nd half of sample was spread over the other side. Fourteen and 25 days after planting, aphid infestations were conducted on the 1st and 2nd true leaves, respectively.
# Assay 2. Compound (2) was tested at 0.1 and 1 mg/seed. For the 1 mg/seed treatment, the original 10% formulation was used. For the 0.1 mg/seed treatment, the 10% formulation were diluted 10× with DI water before application. One half (5 ul) of the sample was spread onto one side of a seed. Once dried (approximately 1 hr), the seed was flipped over and the 2nd half of sample was spread over the other side. Thirteen days after planting, the 1st leaf was infested.
# [5] = 3 mg/seed, 10% SC formulation, counted 3 days after infestation
structure (smiles),measurement,setting,value
"CC(c1ccc(Cl)nc1)S(C)(=O)=NC#N (stereo not drawn) [Compound 2, [1-(6-chloropyridin-3-yl)ethyl](methyl)oxido-λ^4-sulfanylidenecyanamide]","% Control, root uptake systemic",[1]; 0.08 μg/plant,41%
same,"% Control, root uptake systemic",[1]; 0.4 μg/plant,48%
same,"% Control, root uptake systemic",[1]; 2 μg/plant,95%
same,"% Control, root uptake systemic",[1]; 10 μg/plant,99%
same,"% Control, root uptake systemic Brown planthopper",[2]; 0.25 ppm in water,55%
same,"% Control, root uptake systemic Brown planthopper",[2]; 0.50 ppm in water,80%
same,"% Control, root uptake systemic Brown planthopper",[2]; 1.00 ppm in water,100%
same,"% Control, root uptake systemic Brown planthopper",[2]; 2.00 ppm in water,100%
same,"% Control, root uptake systemic Brown planthopper",[2]; 5.00 ppm in water,100%
same,"% Control, root uptake systemic Green leafhopper",[3]; 0.25 ppm in water,45%
same,"% Control, root uptake systemic Green leafhopper",[3]; 0.50 ppm in water,65%
same,"% Control, root uptake systemic Green leafhopper",[3]; 1.00 ppm in water,100%
same,"% Control, root uptake systemic Green leafhopper",[3]; 2.00 ppm in water,100%
same,"% Control, root uptake systemic Green leafhopper",[3]; 5.00 ppm in water,100%
same,"% Control, seed coating systemic",[4]; 0.1 mg/seed,36.5%
same,"% Control, seed coating systemic",[4]; 1 mg/seed,99.8%
same,"% Control, seed coating systemic 1st leaf, 14 days after planting",[4]; [5],100%
same,"% Control, seed coating systemic 2nd leaf, 25 days after planting",[4]; [5],99.8%
